Values quoted from earlier work in article PMC10517971, “An inverse agonist of orphan receptor GPR61 acts by a G protein-competitive allosteric mechanism” (Nature Communications, 2023).

Legend:
[1] = system: GPR61; parameters: method as in PMID 14607265, PMID 31352450; conditions: cited from earlier work
[2] = cited from earlier work

CCCCCCCCCOc1ccc2[nH]cc(CCN)c2c1 [Compound 5-NOT, 5-nonyloxy-tryptamine]
potency as GPR61 inverse agonist [1]: low potency | selectivity [1]: lack of selectivity | solubility [2]: low solubility
